Data published in ChEMBL document CHEMBL1201862, “PubChem BioAssay data set” (2004).
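A five-concentration, 48-hour dose response in 96-well plates underlies each endpoint, interpolated linearly between surrounding concentrations. Here, GI50 denotes the concentration required for 50% inhibition of growth.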 Active and inactive are the calls of the source. Rule as the data show it: active = GI50 up to about 1.1 µM and inactive = higher.

Columns and labels:
Assay in all cases: growth of human tumour cells (NCI), 48 h
T47D = tested on: T47D
LOX IMVI = tested on: LOX IMVI
786-0 = tested on: 786-0
SF-268 = tested on: SF-268
TK-10 = tested on: TK-10
EKVX = tested on: EKVX
RXF 393 = tested on: RXF 393
UO-31 = tested on: UO-31
HCT-116 = tested on: HCT-116
OVCAR-8 = tested on: OVCAR-8
HOP-92 = tested on: HOP-92
SF-295 = tested on: SF-295
PC-3 = tested on: PC-3
U-251 = tested on: U-251
NCI-H522 = tested on: NCI-H522
SNB-75 = tested on: SNB-75
Hs-578T = tested on: Hs-578T
Malme-3M = tested on: Malme-3M
MDA-MB-231 = tested on: MDA-MB-231
COLO 205 = tested on: COLO 205

Measured: GI50

COc1nc(C(Cl)(Cl)Cl)c(Cl)c(OC)c1Cl [PENCLOMEDINE]
inactive: T47D 37.4 µM | LOX IMVI 29 µM | 786-0 6.59 µM | SF-268 36.1 µM | TK-10 52.6 µM | EKVX 40.8 µM | RXF 393 36.7 µM | UO-31 40.8 µM | HCT-116 41.9 µM | OVCAR-8 21.2 µM | HOP-92 28.2 µM | SF-295 40.2 µM | PC-3 39.6 µM | U-251 36.1 µM | NCI-H522 33.1 µM | SNB-75 7.76 µM | Hs-578T 33.3 µM | Malme-3M 31.2 µM | MDA-MB-231 38.3 µM | COLO 205 44.1 µM
